Reference: patent US9707244B2, “Compositions and methods for treating conditions that affect epidermis” (Gencia Corporation, priority 2013, dated 2017)
Entries after “also recorded” stand apart in the source; their conditions may differ.

Key:
[1] = test system: EpiDerm Full Thickness 400 (EFT-400) tissues; assay: Mattek full-thickness skin model (EFT-400) skin thickness; format: cell-based; conditions: 25 nM with corticosteroid, 14 days; on average; p<0.001
Description: Following the protocol of Schoepe, we used the FTSM model to determine if co-treatment with Mitocreatine would reduce the loss in skin thickness produced by glucocorticoids.
2.5 mL of EpiDerm Full Thickness 400 (EFT-400) medium was dispensed into each well of the four 6-well plates aseptically in the tissue culture hood. The plates containing the EFT-400 tissues were removed from their plastic packaging and transferred using sterile forceps into the 6-well plates containing the 2.5 mL of EFT-400 media, making sure that no agarose adheres to the insert and that the media makes full contact with the underside of the tissue insert membrane (no air bubbles under the insert). The apical surface of the tissue should remain exposed to air (no media should be added to the side of the insert).
The tissues were equilibrated overnight at 37° C., 5% CO2. Treatment conditions are listed below in Table 5.
Day 2-13: The plates were visually examined and the media containing the test compounds was replenished each day.
Day 15: The inserts were dislodged from the support and the tissue carefully removed from the support with a scalpel.
The tissues were placed in 50 mL conical tubes containing 10% phosphate buffered formalin and sent for sectioning, histological processing and H&E staining Slides were visualized using a Leica Stereoscope equipped with a digital camera. Images were acquired and measured using ExoLabs software. Data was tabulated in Excel and the results were analyzed.

[2] = test system: AG11073 fibroblasts from a person; assay: 3D collagen cell culture system, aged skin fibroblasts; format: cell-based, human; conditions: five days post-treatment
Description: (§1) The effects of Mitocreatine on skin fibroblasts cultured in a 3D matrix to better simulate in vivo milieu were examined. The cells were visualized by phase contrast light microscopy and their biological response to different concentrations of Mitocreatine evaluated. The 3D Collagen Cell Culture System from Millipore (Catalogue number ECM 675) was utilized.
(§2) All liquids were prepared according to manufacturer's instructions, and kept on ice. Tissue culture plates were coated with collagen by pipetting 500 μL of chilled Collagen Gel Solution into each well of a 24 well tissue culture plate. The plate was immediately transferred to a 37° C. incubator for 60 min to initiate polymerization of the collagen.
(§3) After the formation of the collagen gel, AG11073 and AG16409 cells were harvested and re-suspended at 4×10^5/mL and 1×10^6 cells were seeded onto the collagen gel. The cells were obtained using the procedure as described in Example 1.
(§4) After overnight incubation at 37° C. with 5% CO2 the media was replaced with fresh media containing various doses of Mitocreatine or the vehicle. Cells were visualized daily using phase contrast microscopy.
Fibroblasts from a person were cultured on a collagen matrix. Two days after seeding, cells were treated with a Mitocreatine at increasing amounts (0, 5, 15 and 25 μL). Five days post-treatment, collagen shrinkage was assayed by means of translucency. […]

[3] = RIPT (Repeat Insult Patch Test) study; format: in vivo, human; conditions: 0.1% topical formulation
[4] = test system: AG11073 senescent fibroblasts; assay: Intracellular collagen type I immunolabeling and image analysis; format: cell-based, human
Description: The cell line AG11073 senescent fibroblasts, at passage 20, were plated onto a multi-chambered glass slide. Dulbecco's Modified Eagle Medium (DMEM) supplemented with the appropriate serum and antibiotics and either containing vehicle or 25 nM of Mitocreatine was added to each chamber. Cells were treated once daily with fresh media containing either vehicle or 25 nM mitocreatine for seven days. At the completion of the treatment period, the cells were washed with warm PBS and fixed with ice cold acetone. The chambers were removed and the slide immunoprobed with an anti-collagen type I antibody (ab292, Abcam). An Alexa-488 secondary antibody was used for detection and DAPI used to stain nuclei.
The cells utilized were human skin fibroblast acquired from Coriell Cell Repository. The cell line AG11073 is untransformed human skin fibroblasts from a person. The primary culture was initiated from explants of a 2 mm-punch biopsy. The cell line AG16409 is untransformed human skin fibroblasts from a person. Aged senescent fibroblasts (Coriell AG11073) were cultured for 7 days with either vehicle or 25 nM mitocreatine. Cells were probed with anti-collagen type I antibody (green) and DAPI (blue) for nuclei to assess changes in collagen type I expression.
Cell area and mean pixel intensity of the green fluorescence was acquired using Image J software. Image analysis supports an increase in cell area as well as an increase in intracellular collagen type I.
Image data from the immunolabeling of collage type I study was also used to quantify the amount of collagen immunolabeling in the AG11073 senescent fibroblast treated with 25 nM Mitocreatine in vehicle for seven days.

[5] = test system: AG16409 fibroblasts from a child; assay: 3D collagen cell culture system, young skin fibroblasts; format: cell-based, human
Description: as §1, §2, §3, §4
Fibroblasts from a person were cultured on a collagen matrix. Two days after seeding, cells were treated with a Mitocreatine at increasing amounts (0, 5, 15 and 25 μL). Five days post-treatment, collagen shrinkage was assayed by means of translucency.

[6] = test system: ARPE-19 cells, a retinal pigmented epithelial cell line; assay: WST-1 cell viability in senescent ARPE-19 cells; format: cell-based, human; conditions: up to 1 uM; twenty-four hours after treatment
Description: In the present invention ARPE-19 cells were used to evaluate whether Mitocreatine improves mitochondrial parameters and reduces ROS in a cell model of AMD. The cells were prematurely senescenced according to the protocol of Glotin et al. (2008). […] Cells were plated in a 96 well plate for analysis of WST-1 bioreduction, a formazan based dye similar to MTT whose bioreduction is largely dependent on the glycolytic production of NAD(P)H in viable cells and is routinely used to monitor cell viability.

allergenicity in RIPT [3]: hypoallergenic
SMILES: CN(CC(=O)NCCC[P+](c1ccccc1)(c1ccccc1)c1ccccc1)C(=N)N.Cl.[Cl-] [Mitocreatine, N^2-[ammonio(imino)methyl]-N^2-methyl-N-[3-(triphenylphosphonio)propyl] glycinamide dichloride]
improvement of skin thickness [1]: 50%
collagen matrix translucency [2]: dose-dependent increase
induction in collagen type I levels ([4]; 25 nM for seven days, fluorescent intensity per area unit normalized to untreated cells): 7 fold
intracellular collagen type I ([4]; 25 nM once daily for seven days): significant increase in intracellular collagen; also recorded: significant increase in collagen type I expression
cell numbers / cell proliferation ([4]; 25 nM once daily for seven days, senescent cells): significant increase in cell numbers; also recorded: induced cell proliferation
collagen translucency [5]: No change
cell viability (WST-1) [6]: does not negatively impact cell viability
